From ChEMBL document CHEMBL4725301, “Discovery of a novel 9-position modified second-generation anti-HCV candidate via bioconversion and semi-synthesis of FR901459” (Bioorg Med Chem Lett, 2020)
≈ marks a conversion by molar mass, not a printed value.

Tests used:
[1] = tested on: Splenocyte; assay: Immunosuppressive activity in mouse splenocytes assessed as inhibition of concanavalinA-induced cell proliferation; type: cell-based
[2] = Inhibition of cyclophilin (unknown origin) assessed as inhibition of HCV #50-1 subgenomic viral replicon replication in presence of 5% FBS; set-up: species or system Homo sapiens
[3] = Inhibition of cyclophilin (unknown origin) assessed as inhibition of HCV #50-1 subgenomic viral replicon replication in presence of 50% human serum albumin
[4] = Inhibition of cyclophilin (unknown origin) assessed as inhibition of HCV FLR1 subgenomic viral replicon replication in presence of 10% FBS by luciferase reporter gene assay; set-up: species or system Homo sapiens
[5] = Inhibition of cyclophilin (unknown origin) assessed as inhibition of HCV FLR1 subgenomic viral replicon replication in presence of 50% human serum albumin by luciferase reporter gene assay
[6] = AUC (0 to 24 hrs) in po dosed rat; type: ADME, organism-based; set-up: time < 24 hr, route oral; settings: in vivo
[7] = Oral bioavailability in rat; type: ADME, organism-based; settings: in vivo
[8] = Aqueous solubility of the compound in JP2 fluid at pH 6.8 by disintegration test; type: physicochemical
[9] = tested on: Hepatitis C virus; assay: Antiviral activity against Hepatitis C virus genotype 1a infected in humanized liver SCID-Alb/uPA chimeric mouse assessed as log reduction in serum HCV RNA level at 15 mg/kg, po administered via gavage bid for 14 days cotreated with interferon-alfa2b at 400 U/g, sc administered qd measured for 7 days follow-up period without compound administration post-last dose; type: functional, Hepacivirus hominis, subtype 1a; settings: time 14 day

Row | EC50 [2] [µg/mL] | EC50 [3] [µg/mL] | EC50 [4] [µg/mL] | EC50 [5] [µg/mL] | AUC(0-t) at 24 h [6] [ng·h/mL] | bioavailability [7] [%] | solubility [8] [µg/mL] | SMILES | IC50 [1] [µg/mL] | log(activity) [9]
1 | 0.16 | 0.22 | – | – | – | – | – | C/C=C/C[C@@H](C)[C@@H](O)[C@H]1C(=O)N[C@@H]([C@@H](C)O)C(=O)N(C)CC(=O)N(C)[C@@H](CC(C)C)C(=O)N[C@@H](CC(C)C)C(=O)N(C)[C@@H](CC(C)C)C(=O)N[C@@H](C)C(=O)N[C@H](C)C(=O)N[C@@H](C[C@H](C)COC(=O)N2CCN(C)CC2)C(=O)N[C@@H](CC(C)C)C(=O)N(C)[C@@H](C(C)C)C(=O)N1C | 1.9 (≈ 1.41 µM) | –
2 | – | – | 0.11 | 0.25 | – | – | – | C/C=C/C[C@@H](C)[C@@H](O)[C@H]1C(=O)N[C@@H]([C@@H](C)O)C(=O)N(C)[C@H](COC)C(=O)N(C)[C@@H](CC(C)C)C(=O)N[C@@H](CC(C)C)C(=O)N(C)[C@@H](CC(C)C)C(=O)N[C@@H](C)C(=O)N[C@H](C)C(=O)N[C@@H](C[C@H](C)CN2CCOCC2)C(=O)N[C@@H](CC(C)C)C(=O)N(C)[C@@H](C(C)C)C(=O)N1C | – | –
3 | 0.097 | 0.55 | – | – | – | – | – | C/C=C/C[C@@H](C)[C@@H](O)[C@H]1C(=O)N[C@@H]([C@@H](C)O)C(=O)N(C)CC(=O)N(C)[C@@H](CC(C)C)C(=O)N[C@@H](CC(C)C)C(=O)N(C)[C@@H](CC(C)C)C(=O)N[C@@H](C)C(=O)N[C@H](C)C(=O)N[C@@H](C[C@H](C)COC(=O)NCCOC)C(=O)N[C@@H](CC(C)C)C(=O)N(C)[C@@H](C(C)C)C(=O)N1C | 0.75 (≈ 0.567 µM) | –
4 | – | – | 0.058 | 0.064 | 12400 | 12.9 | 73 (≈ 51.3 µM) | C/C=C/C[C@@H](C)[C@@H](O)[C@H]1C(=O)N[C@@H]([C@@H](C)O)C(=O)N(C)[C@H](COC)C(=O)N(C)[C@@H](CC(C)C)C(=O)N[C@@H](CC(C)C)C(=O)N(C)[C@@H](CC(C)C)C(=O)N[C@@H](C)C(=O)N[C@H](C)C(=O)N[C@@H](C[C@H](C)COC(=O)N2CCO[C@@H](COC)C2)C(=O)N[C@@H](CC(C)C)C(=O)N(C)[C@@H](C(C)C)C(=O)N1C | 0.88 (≈ 0.619 µM) | –
5 | 0.22 | – | – | – | – | – | – | C/C=C/C[C@@H](C)[C@@H](O)[C@H]1C(=O)N[C@@H]([C@@H](C)O)C(=O)N(C)CC(=O)N(C)[C@@H](CC(C)C)C(=O)N[C@@H](CC(C)C)C(=O)N(C)[C@@H](CC(C)C)C(=O)N[C@@H](C)C(=O)N[C@H](C)C(=O)N[C@@H](C[C@H](C)CN2CCOCC2)C(=O)N[C@@H](CC(C)C)C(=O)N(C)[C@@H](C(C)C)C(=O)N1C | 0.12 (≈ 0.093 µM) | –
6 | 0.85 | 2.4 | – | – | – | – | – | C/C=C/C[C@@H](C)[C@@H](O)[C@H]1C(=O)N[C@@H]([C@@H](C)O)C(=O)N(C)CC(=O)N(C)[C@@H](CC(C)C)C(=O)N[C@@H](CC(C)C)C(=O)N(C)[C@@H](CC(C)C)C(=O)N[C@@H](C)C(=O)N[C@H](C)C(=O)N[C@@H](C[C@H](C)CO)C(=O)N[C@@H](CC(C)C)C(=O)N(C)[C@@H](C(C)C)C(=O)N1C | 0.28 (≈ 0.229 µM) | –
7 | 0.096 | 3.7 | – | – | – | – | – | C/C=C/C[C@@H](C)[C@@H](O)[C@H]1C(=O)N[C@@H]([C@@H](C)O)C(=O)N(C)CC(=O)N(C)[C@@H](CC(C)C)C(=O)N[C@@H](CC(C)C)C(=O)N(C)[C@@H](CC(C)C)C(=O)N[C@@H](C)C(=O)N[C@H](C)C(=O)N[C@@H](CC(C)C)C(=O)N[C@@H](CC(C)C)C(=O)N(C)[C@@H](C(C)C)C(=O)N1C | 0.026 (≈ 0.0216 µM) | –
8 | – | – | 0.06 | 0.097 | – | – | – | C/C=C/C[C@@H](C)[C@@H](O)[C@H]1C(=O)N[C@@H]([C@@H](C)O)C(=O)N(C)[C@H](COC)C(=O)N(C)[C@@H](CC(C)C)C(=O)N[C@@H](CC(C)C)C(=O)N(C)[C@@H](CC(C)C)C(=O)N[C@@H](C)C(=O)N[C@H](C)C(=O)N[C@@H](C[C@H](C)COC(=O)N(C)CCOC)C(=O)N[C@@H](CC(C)C)C(=O)N(C)[C@@H](C(C)C)C(=O)N1C | 0.85 (≈ 0.616 µM) | –
9 | – | – | – | – | 16100 | 36 | 117 (≈ 95.9 µM) | C/C=C/C[C@@H](C)[C@@H](O)[C@H]1C(=O)N[C@@H]([C@@H](C)O)C(=O)N(C)[C@H](C)C(=O)N(C)[C@@H]([C@@H](C)OC)C(=O)N[C@@H](CC(C)C)C(=O)N(C)[C@@H](CC(C)C)C(=O)N[C@@H](C)C(=O)N[C@H](C)C(=O)N[C@@H](CC(C)C)C(=O)N[C@@H](CC(C)C)C(=O)N(C)[C@@H](C(C)C)C(=O)N1C | – | –
10 | 0.099 | 0.56 | – | – | – | – | – | C/C=C/C[C@@H](C)[C@@H](O)[C@H]1C(=O)N[C@@H]([C@@H](C)O)C(=O)N(C)CC(=O)N(C)[C@@H](CC(C)C)C(=O)N[C@@H](CC(C)C)C(=O)N(C)[C@@H](CC(C)C)C(=O)N[C@@H](C)C(=O)N[C@H](C)C(=O)N[C@@H](C[C@H](C)COCC(=O)N2CCOCC2)C(=O)N[C@@H](CC(C)C)C(=O)N(C)[C@@H](C(C)C)C(=O)N1C | 0.92 (≈ 0.683 µM) | –

Row | SMILES | EC50 [2] [µg/mL] | EC50 [3] [µg/mL] | EC50 [4] [µg/mL] | EC50 [5] [µg/mL] | AUC(0-t) at 24 h [6] [ng·h/mL] | bioavailability [7] [%] | solubility [8] [µg/mL] | IC50 [1] [µg/mL] | log(activity) [9]
11 | C/C=C/C[C@@H](C)[C@@H](O)[C@H]1C(=O)N[C@@H]([C@@H](C)O)C(=O)N(C)[C@H](COC)C(=O)N(C)[C@@H](CC(C)C)C(=O)N[C@@H](CC(C)C)C(=O)N(C)[C@@H](CC(C)C)C(=O)N[C@@H](C)C(=O)N[C@H](C)C(=O)N[C@@H](C[C@H](C)CN2CCOC(COC)(COC)C2)C(=O)N[C@@H](CC(C)C)C(=O)N(C)[C@@H](C(C)C)C(=O)N1C | – | – | 0.063 | 0.1 | 16900 | 28.3 | 54 (≈ 38 µM) | 1.7 (≈ 1.2 µM) | 2
